Entries after “also recorded” stand apart in the source; their conditions may differ.
Key:
[1] = Freeze-thaw cycle accelerated method for predicting precipitation (height of precipitate in tube); type: physicochemical; details: for Effectiveness to inhibit precipitation: 63 mmol in 150 mL (420 mM), five freeze-thaw cycles; for Effectiveness as precipitation inhibitor compared with malic acid: 31 mmol in 150 mL (210 mM)
Protocol: A picosulfate formulation containing sodium picosulfate (10 mg), magnesium oxide (3.5 g), citric acid (12 g), and KHCO3 (0.65 g) and, optionally, a precipitation inhibitor (or combination of inhibitors) to be tested, dissolved in water (150 mL) is prepared. The pH is adjusted to the range 4.7-5.1 using aq. NaOH and aq. HCl solutions. The solution is filtered through a 0.22 μm PTFE filter under vacuum.
Two portions of 10 mL of the formulation test solution are placed in tapered, graduated, centrifuge tubes (15 mL) and subjected to five freeze-thaw cycles in which the solutions are frozen at −20° C. for at least 12 h and then thawed at 20-25° C. for 8 h. At the end of each cycle, the tube is inspected for precipitation at the bottom of the tube. If precipitation is present, the amount of precipitate is quantitated by measuring the height (in mm) of the precipitate in the centrifuge tube using a ruler.
The amount of precipitate (if any) is quantitated by measuring the height (in mm) of the precipitate in the centrifuge tube using a ruler at the end of each freeze thaw cycle.
If a polymer is included in the formulation, the polymer (75-150 mg) is dissolved in water (150 mL) until a clear solution (containing the polymer at a concentration of […]) is formed. A sachet of PREPOPIK® sodium picosulfate/magnesium citrate granules (containing sodium picosulfate (10 mg), magnesium oxide (3.5 g), citric acid (12 g), KHCO3 (0.65 g), Na-saccharin and orange flavoring) is added. A carboxylic acid (31-63 mmol) is added, and the pH is adjusted to the range 4.7-5.1 using aq. NaOH and aq. HCl solutions. The solution is filtered through a 0.22 μm PTFE filter under vacuum.

[2] = Time to precipitation on storage under ambient conditions (20-25 °C); type: physicochemical; details: Table 3 data; 0.42 M
Protocol: A liquid formulation containing sodium picosulfate and magnesium citrate was prepared by dissolving a sachet of commercially available PREPOPIK® containing sodium picosulfate (10 mg), magnesium oxide (3.5 g), citric acid (12 g), KHCO3 (0.65 g), and orange or berry flavoring in water (150 mL). The solution is stored under ambient conditions and observed periodically until precipitation from the solution is noted.
A liquid formulation containing sodium picosulfate and magnesium citrate stabilized with malic acid was prepared using the ingredients listed in Table 1. The solution is stored under ambient conditions and observed periodically for precipitation from the solution. No precipitation is observed within 340 days.
As a reference, commercially available sodium picosulfate/magnesium oxide/citric acid (PICOSOLUTION™, Pharmbio Co., Ltd.) is also stored under ambient conditions and observed periodically for precipitation from the solution. No precipitation is observed within 645 days.
The remainder of the formulation test solution may be stored at ambient temperature (e.g., 20-25° C.) to determine the stability under non-accelerated conditions.
Samples of each of the solutions are also stored at ambient temperature (20-25° C.) and monitored for the appearance of precipitation. […]

| Concentration of malic acid needed for prolonged stability [2] [mmol per 150 mL] | SMILES | Effectiveness to inhibit precipitation [1] | Effectiveness as precipitation inhibitor compared with malic acid [1] |
| --- | --- | --- | --- |
| ≥ 63 | O=C(O)CC(O)C(=O)O (stereo not drawn) [malic acid] | very effective; also recorded: effective to inhibit precipitation |  |
|  | O=C(O)CC(=O)O [malonic acid] | very effective; also recorded: effective to inhibit precipitation | more effective as a precipitation inhibitor than malic acid |
|  | O=C(O)C(O)C(O)C(=O)O (stereo not drawn) [tartaric acid] | very effective; also recorded: effective to inhibit precipitation | of comparable effectiveness |
